1 compound from BindingDB's records for doi:10.1021/acs.jnatprod.7b00121 (Seoul National University, 2017) can be followed below.

As a reminder, the IC50 is the concentration at which inhibition is half-maximal. High values mean lower potency, low ones higher potency.

The test addresses T1, Sortase family protein (Staphylococcus aureus, UniProt Q9S446).
T1 sequence (Q9S446 whole entry): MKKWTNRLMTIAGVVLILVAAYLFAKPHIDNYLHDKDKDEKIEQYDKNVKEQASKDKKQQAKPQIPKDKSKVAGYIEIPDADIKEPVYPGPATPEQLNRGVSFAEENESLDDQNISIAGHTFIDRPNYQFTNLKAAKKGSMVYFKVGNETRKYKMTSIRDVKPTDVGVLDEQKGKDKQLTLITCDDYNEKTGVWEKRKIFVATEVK
Description: Inhibition of Staphylococcus aureus ATCC 6538p SortA expressed in Escherichia coli using Dabcyl-QALPETGEE-Edans as substrate after 1 hr by fluorescence spectrophotometric method.

The compound `O=C(O)c1cc[c]([Hg][OH])cc1` had a half-inhibitory concentration (IC50) of 25 µM.
